{"source": "patent US9241943B2", "about": "“Oxathiazine derivatives as antibacterial and anticancer agents” (GEISTLICH PHARMA AG, priority 2012, dated 2016)", "key": {"[1]": {"tested_on": "cancers identified herein", "assay": "Administration to patients having cancers (Example 5)", "format": "in vivo, human", "conditions": "Example 5, written in present tense"}, "[2]": {"tested_on": "human glioma cell line LN-229", "assay": "Cytotoxicity assay (crystal violet) in LN-229 cells", "format": "cell-based"}, "[3]": {"tested_on": "human glioma cell line LN-229", "assay": "Cytotoxicity assay (crystal violet) in LN-229 cells", "format": "cell-based", "conditions": "24 h, high values correspond to high cell viability", "procedure": "Cell lines: The human glioma cell line LN-229 was used as described previously (Rodak et al. 2005) as well as the human colon adenocarcinoma cell line SW480.\nCytotoxicity assay: Dissociated LN-229 cells were seeded into 96-well plates at a density of 10^4 cells per well in 100 μl of culture medium. Approximately 24 h later, when the cells had reached 70-80% confluency, the medium was changed and treatment with compound #2250 (4.0-1000 μg/ml), taurolidine (4.0-1000 μg/ml) or standard medium was started. Triplicate cultures were prepared for each sample. After 24 h of incubation at […], the remaining adherent viable cells were stained using crystal violet as described (Rodack et al. 2005). Cell viability was determined by measuring the absorbancy at 540 nm. The results are expressed as killing rate given by the difference between 100% of cells and percentage of cells surviving. EC50 values correspond to the concentration inducing 50% cell death."}, "[4]": {"tested_on": "murine SMA 560 bulk glioma cells", "assay": "Cytotoxicity assay in murine SMA 560 bulk glioma cells", "format": "cell-based, mouse", "procedure": "(§1) Tissue samples from high grade gliomas WHO grade IV from newly diagnosed patients (medium age of 54±10 years) were minced mechanically, digested enzymatically and the dissociated cells were filtered. The isolated tumor cells were cultured as bulk cells. Cancer Stem Cells (CSCs) were isolated by the formation of neurospheres under neurosphere conditions (using neurobasal medium) from the murine SMA 560 glioma cell line or from freshly isolated human glioblastoma cells.\nBulk glioma tumor cells were cultured and incubated with taurolidine or taurultam for 24h or 48h as described previously (Rodak et al., J. Neurosurg. 102, 1055-1068, 2005). CSCs were cultured for 7 days and subsequently exposed to taurolidine, taurultam or temozolamide for 24 hours. The number of remaining adherent cells were stained (crystal violet or Alamar Blue) and quantified by absorbance measurements (540 nm). Cell survival was expressed as the percentage of cells surviving relative to the number of cells surviving in untreated control cultures. […]\nThe mouse SMA560 glioma cell line was used to provide tumor bulk cells and CSCs. Following incubation of SMA560 bulk cells with various concentrations of taurolidine and taurultam (6.25, 12.5, 25, 50, 100, 200 μg/ml), cytotoxicity was determined after 24 h and 48 h of incubation."}, "[5]": {"tested_on": "human glioblastoma bulk cells", "conditions": "cited from earlier work"}, "[6]": {"tested_on": "murine SMA560 glioma cancer stem cells (CSC)", "assay": "Cytotoxicity assay in murine SMA560 glioma cancer stem cells", "format": "cell-based, mouse", "conditions": "for sensitivity of CSCs relative to corresponding glioma bulk cells, based on EC50: murine SMA 560 CSCs vs bulk cells", "procedure": "as §1\n(§2) Bulk glioma tumor cells were cultured and incubated with taurolidine or taurultam for 24h or 48h as described previously (Rodak et al., J. Neurosurg. 102, 1055-1068, 2005). CSCs were cultured for 7 days and subsequently exposed to taurolidine, taurultam or temozolamide for 24 hours. The number of remaining adherent cells were stained (crystal violet or Alamar Blue) and quantified by absorbance measurements (540 nm). Cell survival was expressed as the percentage of cells surviving relative to the number of cells surviving in untreated control cultures. The results are given as % killing rate or EC50 as the dose required for half-maximal cytotoxicity.\nMouse CSCs were generated from the SMA560 glioma cell line and cultured for 7 days. The CSCs were treated with the same concentration of taurolidine and taurultam as above and cytotoxicity was determined after 24 hours."}, "[7]": {"tested_on": "cancer stem cells (CSC) derived from four glioblastoma patients", "format": "cell-based, human", "procedure": "as §1, §2\nCSCs were isolated from glioblastoma tissue resected from four patients. The same range of concentrations of taurolidine and taurultam was applied as above and the cytotoxicity was measured after 24 hours of incubation with drug. […]"}, "[8]": {"conditions": "measured in patients; cited from earlier work"}}}
{"smiles": "O=S1(=O)CCNCO1", "note": "[A1]", "values": [{"measurement": "efficacy in treating cancers in patients", "setting": "[1]", "result": "effective in treating such cancers"}]}
{"smiles": "O=S1(=O)CCOCO1", "note": "[A3]", "values": [{"measurement": "efficacy in treating cancers in patients", "setting": "[1]", "result": "effective in treating such cancers"}]}
{"smiles": "O=S1(=O)CCN(CN2COCCS2(=O)=O)CN1", "note": "[B1]", "values": [{"measurement": "efficacy in treating cancers in patients", "setting": "[1]", "result": "effective in treating such cancers"}]}
{"smiles": "O=S1(=O)CCN(CN2CCS(=O)(=O)OC2)CN1", "note": "[B2]", "values": [{"measurement": "efficacy in treating cancers in patients", "setting": "[1]", "result": "effective in treating such cancers"}]}
{"smiles": "O=S1(=O)CCN(CN2CCS(=O)(=O)OC2)CO1", "note": "[B3]", "values": [{"measurement": "efficacy in treating cancers in patients", "setting": "[1]", "result": "effective in treating such cancers"}]}
{"smiles": "O=S1(=O)CCOCN1CN1COCCS1(=O)=O", "note": "[Compound 2245]", "values": [{"measurement": "efficacy in treating cancers in patients", "setting": "[1]", "result": "effective in treating such cancers"}]}
{"smiles": "O=S1(=O)CCOCN1", "note": "[Compound 2250, Tetrahydro1,4,5-oxathiazin-4-dioxid]", "values": [{"measurement": "effect on tumor cell morphology", "setting": "[2]", "result": "causes blebbing of tumor cells"}, {"measurement": "efficacy in treating cancers in patients", "setting": "[1]", "result": "effective in treating such cancers"}, {"measurement": "OD (absorbance at 540 nm)", "setting": "[3]; 4 μg/ml", "result": 1.477}, {"measurement": "OD (absorbance at 540 nm)", "setting": "[3]; 8 μg/ml", "result": 1.527}, {"measurement": "OD (absorbance at 540 nm)", "setting": "[3]; 15.5 μg/ml", "result": 1.482}, {"measurement": "OD (absorbance at 540 nm)", "setting": "[3]; 31 μg/ml", "result": 1.482}, {"measurement": "OD (absorbance at 540 nm)", "setting": "[3]; 62.5 μg/ml", "result": 0.372}, {"measurement": "OD (absorbance at 540 nm)", "setting": "[3]; 125 μg/ml", "result": 0.199}, {"measurement": "OD (absorbance at 540 nm)", "setting": "[3]; 250 μg/ml", "result": 0.120}, {"measurement": "OD (absorbance at 540 nm)", "setting": "[3]; 500 μg/ml", "result": 0.141}, {"measurement": "OD (absorbance at 540 nm)", "setting": "[3]; 1000 μg/ml", "result": 0.189}]}
{"smiles": "CN1COCCS1(=O)=O", "note": "[Compound 2255]", "values": [{"measurement": "efficacy in treating cancers in patients", "setting": "[1]", "result": "effective in treating such cancers"}]}
{"smiles": "O=S1(=O)CCN(CN2CCS(=O)(=O)NC2)CN1", "note": "[Taurolidine, taurolidine]", "values": [{"measurement": "EC50", "setting": "[4]; Mus musculus, SMA 560 bulk cells, no major difference between 24 h and 48 h", "result": 34.6, "unit": "µg/mL"}, {"measurement": "EC50 cytotoxicity", "setting": "[5]", "result": "~50", "unit": "µg/mL"}, {"measurement": "sensitivity of CSCs relative to corresponding glioma bulk cells, based on EC50", "setting": "[6]", "result": "about 3 fold"}, {"measurement": "OD (absorbance at 540 nm)", "setting": "[3]; 4 μg/ml", "result": 1.530}, {"measurement": "OD (absorbance at 540 nm)", "setting": "[3]; 8 μg/ml", "result": 1.478}, {"measurement": "OD (absorbance at 540 nm)", "setting": "[3]; 15.5 μg/ml", "result": 1.434}, {"measurement": "OD (absorbance at 540 nm)", "setting": "[3]; 31 μg/ml", "result": 1.132}, {"measurement": "OD (absorbance at 540 nm)", "setting": "[3]; 62.5 μg/ml", "result": 0.317}, {"measurement": "OD (absorbance at 540 nm)", "setting": "[3]; 125 μg/ml", "result": 0.305}, {"measurement": "OD (absorbance at 540 nm)", "setting": "[3]; 250 μg/ml", "result": 0.165}, {"measurement": "OD (absorbance at 540 nm)", "setting": "[3]; 500 μg/ml", "result": 0.098}, {"measurement": "OD (absorbance at 540 nm)", "setting": "[3]; 1000 μg/ml", "result": 0.109}]}
{"smiles": "O=S1(=O)CCNCN1", "note": "[Taurultam, taurultam]", "values": [{"measurement": "EC50 cytotoxicity", "setting": "[4]", "result": 19.3, "unit": "µg/mL"}, {"measurement": "EC50 cytotoxicity", "setting": "[5]", "result": "~50", "unit": "µg/mL"}, {"measurement": "EC50 cytotoxicity", "setting": "[6]", "result": 10, "unit": "µg/mL"}, {"measurement": "sensitivity of CSCs relative to corresponding glioma bulk cells, based on EC50", "setting": "[6]", "result": "~2", "unit": "fold"}]}
{"smiles": "Cn1nnc2c(C(N)=O)ncn2c1=O", "note": "[Temozolamide, temozolamide]", "values": [{"measurement": "Cytotoxicity EC50 24 h, Mean ± SD", "setting": "[7]", "result": "68.5 ± 26", "unit": "µg/mL"}, {"measurement": "peak plasma levels", "setting": "[8]", "result": 13.7, "unit": "µg/mL"}]}
